Reference: patent publication US12171229B2, “Heteroaryl-triazole and heteroaryl-tetrazole compounds as pesticides” (BAYER AKTIENGESELLSCHAFT, priority 2018, dated 2024)

How the values were obtained:
Format in all cases: in vivo
Diabrotica balteata = Diabrotica balteata spray test; conditions: Diabrotica balteata, in Triticum aestivum, 168 h, after 7 days, larvae on wheat seeds, read-out: efficacy (seedlings grown up); for pest or weed control at 80 µg/disc, 250 g/ha: 80 μg/well (=250 g/ha); for pest or weed control at 160 µg/disc, 500 g/ha: 160 μg/well (=500 g/ha)
In short: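 Germinated wheat seeds (5 per well, 1 day on agar) sprayed with compound diluted in water containing 1000 ppm emulsifier, then infested with 10–20 D. balteata larvae. Efficacy scored after 7 days: 100% = seedlings like untreated uninfested control, 0% = no seedlings grown.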

Spodoptera frugiperda = Spodoptera frugiperda spray test; conditions: 168 h, after 7 days, larvae on maize leaf sections
In short: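 Maize leaf sections were sprayed with compound formulated in solvent and diluted in water containing 1000 ppm emulsifier, then infested with fall armyworm larvae after drying. Percent mortality was scored after 7 days (100% = all caterpillars dead, 0% = none).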

Ctenocephalides felis [1] = experiment: Ctenocephalides felis oral test; conditions: 48 h, 100 ppm in cattle blood, after 2 days, adult unfed cat fleas
In short: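 About 20 unfed adult cat fleas feed through parafilm on cattle blood dosed with compound from a DMSO stock. Blood chamber at 37° C, fleas at room temperature. Percent mortality scored after 2 days.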

Nezara viridula = Nezara viridula spray test; conditions: 96 h, after 4 days, larvae on barley plants
In short: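 Barley plants infested with Nezara viridula larvae were sprayed with compound diluted in water containing 1000 ppm emulsifier. Percent mortality was scored 4 days later, where 100% means all bugs killed and 0% none.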

Myzus persicae [2] = experiment: Myzus persicae spray test; conditions: foliar, 120 h, 500 g/ha, after 5 days, Chinese cabbage leaf disks
Method: Myzus persicae—Spray Test
To produce a suitable preparation of active compound, 1 part by weight of active compound is mixed with the stated amount of solvents and is diluted with water, containing an emulsifier concentration of 1000 ppm, to the desired concentration. Further test concentrations are prepared by dilution with emulsifier containing water.
Chinese cabbage (Brassica pekinensis) leaf disks infected with all instars of the green peach aphid (Myzus persicae), are sprayed with a preparation of the active ingredient of the desired concentration.
(§1) After 5 days mortality in % is determined. 100% means all aphids have been killed and 0% means none of the aphids have been killed.

Ctenocephalides felis [3] = experiment: Ctenocephalides felis in-vitro contact test, adult cat flea; conditions: 5 μg/cm^2 (=500 g/ha), after 48 hours, adult cat fleas, read-out: efficacy (fleas dead or moribund)
Method: Ctenocephalides Felis—In-Vitro Contact Tests Adult Cat Flea 9 mg compound is solved in 1 ml acetone and diluted with acetone to the desired concentration. 250 μl of the test solution is filled in 25 ml glass test tubes and homogeneously distributed on the inner walls by rotation and tilting on a shaking device (2 h at 30 rpm). With a compound concentration of 900 ppm, an inner surface of 44.7 cm^2 and a homogeneous distribution, a dose of 5 μg/cm^2 is achieved. After the solvent has evaporated, each test tube is filled with 5-10 adult cat fleas (Ctenocephalides felis), closed with a perforated lid and incubated in a lying position at room temperature and relative humidity. After 48 hours efficacy is determined. The fleas are patted on the ground of the tubes and are incubated on a heating plate at 45-50° C. for at most 5 minutes. Immotile or uncoordinated moving fleas, which are not able to escape the heat by climbing upwards, are marked as dead or moribund. […] An efficacy of 100% means all fleas are dead or moribund; 0% means no fleas are dead or moribund.

[4] = system: Aedes aegypti strain MONHEIM; experiment: Aedes aegypti test (AEDSAE surface treatment & contact assay); conditions: surface concentration 20 mg/m^2, exposure 30 minutes, 24 hours after contact, read-out: efficacy (mortality)
Method: Aedes Aegypti Test (AEDSAE Surface Treatment & Contact Assay)
(§2) Solvent: Aceton+2000 ppm rapeseed oil methyl ester (RME)
(§3) In order to produce a sufficient, active ingredient containing solution it is necessary to solve the test compound in the solvent-mix (acetone at 2 mg/ml/RME 2000 ppm). This solution is pipetted onto a glazed tile and after evaporation of the acetone, adult mosquitoes of the species Aedes aegypti strain MONHEIM are placed onto the dried surface. The exposure time is 30 minutes.
(§4) Mortality in percent (%) is determined 24 hours after contact of the insects to the treated surface. 100% mortality means that all tested insects are dead, whereas 0% means that no insect died.

Boophilus microplus = Boophilus microplus injection test; conditions: Rhipicephalus microplus, 168 h; 20 μg/animal injected into the abdomen; adult engorged female ticks; egg deposition after 7 days; read-out: efficacy (infertile eggs)
In short: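 Five engorged adult female ticks received a 1 μl abdominal injection of compound in DMSO. They were then held in a climate chamber, with egg deposition checked after 7 days. Unclear eggs were kept until hatching at about 42 days, and efficacy was scored as the percentage of infertile eggs.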

[5] = system: Culex quinquefasciatus strain P00; experiment: Culex quinquefasciatus test (CULXFA surface treatment & contact assay); conditions: surface concentration 20 mg/m^2, exposure 30 minutes, 24 hours after contact, read-out: efficacy (mortality)
Method: Culex Quinquefasciatus Test (CULXFA Surface Treatment & Contact Assay)
as §2
as §3, with “Culex quinquefasciatus” for “Aedes aegypti”, “P00” for “MONHEIM”
as §4

[6] = system: Anopheles funestus strain FUMOZ-R; experiment: Anopheles funestus test (ANPHFU surface treatment & contact assay); conditions: 24 hours after contact, read-out: efficacy (mortality)
Method: Anopheles funestus Test (ANPHFU Surface Treatment & Contact Assay)
as §2
as §3, with “Anopheles funestus” for “Aedes aegypti”, “FUMOZ-R (Hunt et al., Med. Vet. Entomol. 2005 September; 19(3): 271-275)” for “MONHEIM”
as §4

Myzus persicae [7] = experiment: Myzus persicae oral test; conditions: 120 h, 4 ppm, after 5 days
Method: Solvent: 100 parts by weight acetone
To produce a suitable preparation of active compound, 1 part by weight of active compound is mixed with the stated amount of solvent, and the concentrate is diluted with water to the desired concentration.
50 μl compound solution is filled in microtiter plates and 150 μl IPL41 insect medium (33%+15% sugar) is added to obtain a total volume of 200 μl per well. Afterwards the plates are sealed with parafilm through which a mixed population of the green peach aphid (Myzus persicae) can suck on the compound preparation.
as §1

With `C[C@H](NC(=O)c1cc(C(F)(F)F)cc(C(F)(F)F)c1)c1ncnn1-c1ncc(Cl)cc1F` [Example I-088] the pest or weed control at 80 µg/disc, 250 g/ha (Diabrotica balteata) was 100%, the pest or weed control at 160 µg/disc, 500 g/ha (Diabrotica balteata) was 100% and the mortality at 100 g/ha (Spodoptera frugiperda) was 100%. It also gave a mortality at 500 g/ha (Spodoptera frugiperda) of 100%, a mortality at 100 ppm (Ctenocephalides felis [1]) of 100% and a mortality at 100 g/ha (Nezara viridula) of 90%. For the same molecule, the mortality at 500 g/ha (Nezara viridula) was 100%, the mortality at 500 g/ha (Myzus persicae [2]) was 90% and the pest or weed control at 5 µg/cm2 (Ctenocephalides felis [3]) was 100%.

With `C[C@H](NC(=O)c1cc(Cl)cc(C(F)(F)F)c1)c1ncnn1-c1ncc(Br)s1` [Example I-083, N-{(1S)-1-[1-(5-bromo-1,3-thiazol-2-yl)-1H-1,2,4-triazol-5-yl]ethyl}-3-chloro-5-(trifluoromethyl)benzamide] the pest or weed control at 80 µg/disc, 250 g/ha (Diabrotica balteata) was 100%, the pest or weed control at 160 µg/disc, 500 g/ha (Diabrotica balteata) was 100% and the mortality at 100 g/ha (Spodoptera frugiperda) was 100%. The mortality at 500 g/ha (Spodoptera frugiperda) was 100%, the mortality at 100 ppm (Ctenocephalides felis [1]) was 100% and the pest or weed control at 5 µg/cm2 (Ctenocephalides felis [3]) was 90%.

In the case of `C[C@H](NC(=O)c1cc(Cl)cc(C(F)(F)F)c1)c1ncnn1-c1ccc(SC(F)(F)F)cn1` [Example I-026, 3-chloro-5-(trifluoromethyl)-N-[(1S)-1-(1-{5-[(trifluoromethyl)sulfanyl]pyridin-2-yl}-1H-1,2,4-triazol-5-yl)ethyl]benzamide], the pest or weed control at 80 µg/disc, 250 g/ha (Diabrotica balteata) is reported as 100%, the pest or weed control at 160 µg/disc, 500 g/ha (Diabrotica balteata) is reported as 100% and the mortality at 100 g/ha (Spodoptera frugiperda) is reported as 100%. It also gave a mortality at 500 g/ha (Spodoptera frugiperda) of 100%, a mortality at 100 ppm (Ctenocephalides felis [1]) of 100% and a mortality at 20 mg/m2 [4] of 90 to 100%. The pest or weed control at 0.02 mg (Boophilus microplus) was 100%, the mortality at 20 mg/m2 [5] was 90 to 100% and the mortality at 4 mg/m2 ([6]; surface concentration 4 mg/m^2, exposure 30 minutes) was 85 to 100%. The mortality at 20 mg/m2 ([6]; surface concentration 20 mg/m^2, exposure 30 minutes) was 90 to 100%.

Work on `COc1cc(Cl)cc(C(=O)N[C@@H](C)c2ncnn2-c2ccc(C#N)cn2)c1` [Example I-079] yielded a pest or weed control at 80 µg/disc, 250 g/ha (Diabrotica balteata) of 100%, a mortality at 500 g/ha (Spodoptera frugiperda) of 100% and a mortality at 100 ppm (Ctenocephalides felis [1]) of 100%. It also gave a mortality at 100 g/ha (Nezara viridula) of 90%, a mortality at 500 g/ha (Nezara viridula) of 90% and a pest or weed control at 5 µg/cm2 (Ctenocephalides felis [3]) of 90%.

For `C[C@H](NC(=O)c1cc(Cl)cc(C(F)(F)F)c1)c1ncnn1-c1ncc(C(F)(F)F)s1` [Example I-085], the pest or weed control at 80 µg/disc, 250 g/ha (Diabrotica balteata) was 100%, the pest or weed control at 160 µg/disc, 500 g/ha (Diabrotica balteata) was 100% and the mortality at 100 g/ha (Spodoptera frugiperda) was 100%. The mortality at 500 g/ha (Spodoptera frugiperda) was 100%, the mortality at 100 ppm (Ctenocephalides felis [1]) was 100% and the mortality at 500 g/ha (Nezara viridula) was 100%. The pest or weed control at 5 µg/cm2 (Ctenocephalides felis [3]) was 100%.

`C[C@H](NC(=O)c1cc(Br)cc(C(F)(F)F)c1)c1ncnn1-c1ccc(C#N)cn1` [Example I-081] showed a mortality at 4 ppm (Myzus persicae [7]) of 100%, a pest or weed control at 80 µg/disc, 250 g/ha (Diabrotica balteata) of 100% and a pest or weed control at 160 µg/disc, 500 g/ha (Diabrotica balteata) of 100%. It also gave a mortality at 100 g/ha (Spodoptera frugiperda) of 100%, a mortality at 500 g/ha (Spodoptera frugiperda) of 100% and a mortality at 100 g/ha (Nezara viridula) of 90%. For the same molecule, the mortality at 500 g/ha (Nezara viridula) was 100% and the pest or weed control at 5 µg/cm2 (Ctenocephalides felis [3]) was 90%.
